In ChEMBL document CHEMBL5523686, “Medicinal chemistry perspectives on the development of piperazine-containing HIV-1 inhibitors” (Bioorg Med Chem, 2024):
Values after ≈ are worked out from the molar mass of the structure shown.

How the values were obtained:
[1] = system: Human immunodeficiency virus 1; test: Antiviral activity against HIV1 Env pseudotyped virus infected in human HEK293T cells assessed as inhibition of viral growth incubated for 72 hrs by luciferase assay; format: functional, organism-based; conditions: Human immunodeficiency virus 1, HEK-293T
[2] = system: Human immunodeficiency virus 1; test: Antiviral activity against wild type HIV1 IIIB infected in human MT4 cells assessed as inhibition of viral replication incubated for 3 to 5 days by MTT analysis; format: functional, organism-based; conditions: Human immunodeficiency virus 1, IIIB
[3] = Aqueous solubility of compound at pH 7; format: physicochemical
[4] = system: Human immunodeficiency virus 2; test: Antiviral activity against HIV-2 ROD infected in human MT4 cells assessed as inhibition of viral replication measured after 5 days by MTT spectrophotometric assay; format: functional, organism-based; conditions: Human immunodeficiency virus 2, ROD, MT4, 120 h
[5] = system: Human immunodeficiency virus 1; test: Antiviral activity against HIV-1 3B infected in human MT4 cells assessed as inhibition of viral replication incubated for 5 days by MTT assay; format: functional, organism-based; conditions: Human immunodeficiency virus 1, 3B, MT4, 120 h
[6] = system: Human immunodeficiency virus 1; test: Antiviral activity against HIV-1 IIIB infected in human MT4 cells assessed as inhibition of viral replication measured after 5 days by MTT spectrophotometric assay; format: functional, organism-based; conditions: Human immunodeficiency virus 1, IIIB, MT4, 120 h
[7] = system: Human immunodeficiency virus 1; test: Antiviral activity against HIV1 IIIB infected in human MT4 cells assessed as inhibition of viral replication incubated for 3 to 7 days by MTT analysis; format: functional, organism-based; conditions: Human immunodeficiency virus 1, IIIB

With `COc1cnc(-n2cnc(C)n2)c2[nH]cc(C(=O)C(=O)N3CC(C)N(C(=O)c4ccccc4)C(C)C3)c12` (stereo not drawn) the IC50 [1] was 0.14 nM.
Compound `Cc1cc(C#N)cc(C)c1Oc1ccnc(Nc2ccc(N3CCN(S(C)(=O)=O)CC3)c(C#N)c2)n1` has an EC50 [2] of 1 nM and a solubility [3] of 13.5 µg/mL (≈ 26.7 µM).
For `O=C1Nc2ccc(Cl)cc2[C@@](C#CC2CC2)(C(F)(F)F)N1`, the IC50 [4] was 2.22 µg/mL (≈ 7.05 µM), the IC50 [5] was 813 nM and the IC50 [6] was 2.22 µg/mL (≈ 7.05 µM).
With `Cn1c(N2CCNCC2)c(/N=N/c2ccc(Cl)cc2)c(N)nc1=O` the EC50 [7] was > 3030 nM.
Compound `Cc1cc(C#N)cc(C)c1Oc1ccnc(Nc2ccc(N3CCN(S(C)(=O)=O)CC3)nc2)n1` has an EC50 [2] of 2 nM.
